Laboratory results as given in US20240091390A1, “IMPROVED CHOLECYSTOKININ-2 RECEPTOR (CCK2R) TARGETING FOR DIAGNOSIS AND THERAPY” (Medizinische Universität Innsbruck, priority 2021, published 2024).

How the values were obtained:
[1] = Stability against enzymatic degradation in vivo (radio-HPLC of blood); design: species or system BALB/c mice; settings: ^177Lu-labelled, 30 min p.i.
Method: To further characterise the stability of the radiolabelled peptidomimetic in vivo, metabolic studies were carried out in 5-6-week-old female BALB/c mice (Charles River, Sulzfeld, Germany) injected intravenously with ^177Lu-labelled and ^68Ga-labelled peptidomimetics. All animal experiments were conducted in compliance with the Austrian animal protection laws and with the approval of the Austrian Ministry of Science. To allow monitoring of the metabolites by radio-HPLC, mice were injected with a higher amount of radioactivity (20-40 MBq ^177Lu, corresponding to ˜1 nmol total peptide, or ˜10 MBq ^68Ga, corresponding to ˜1 nmol total peptide) through a lateral tail vein and euthanized by cervical dislocation at selected time points p.i. […] A sample of blood was collected and the degradation was assessed by radio-HPLC. For this purpose blood samples were precipitated with ACN, centrifuged at 2000 g for 2 min and diluted with water (1:1/v:v) prior to HPLC analysis using a Dionex chromatography system including radiodetection and UV detection equipped with a Phenomenex Jupiter Proteo C12 column (90 Å, 4 μm, 250×4.6 mm) column using a water/acetonitrile/0.1% TFA gradient system.

[2] = 10 min after intravenous injection; cited from earlier work
[3] = cited from earlier work

| Molecule | percentage of intact radioligand present in the blood [1] | intact peptide in urine and blood [2] | biological half-life in vivo [3] |
| --- | --- | --- | --- |
| CSCC[C@H](NC(=O)[C@H](Cc1c[nH]c2ccccc12)NC(=O)CNC(=O)[C@H](Cc1ccc(O)cc1)NC(=O)[C@H](C)NC(=O)[C@@H](CCC(=O)O)NC(=O)[C@@H](CCC(=O)O)NC(=O)[C@@H](CCC(=O)O)NC(=O)[C@@H](CCC(=O)O)NC(=O)[C@@H](CCC(=O)O)NC(=O)[C@@H](CCC(=O)O)NC(=O)CN1CCN(CC(=O)O)CCN(CC(=O)O)CCN(CC(=O)O)CC1)C(=O)N[C@@H](CC(=O)O)C(=O)N[C@@H](Cc1ccccc1)C(N)=O [^177Lu-PP-F11, metal not drawn] | 5.5% | no intact peptide could be found |  |
| [1,4,7,10-tetraazacyclodocecan-1,4,7,10-tetraacetic acid^0,D-Glu^1,DesGlu^2-6]minigastrin [^111In-DOTA-MG11] |  |  | below five minutes |
